From the NIST ThermoML archive (doi:10.1016/j.jct.2014.07.023)
± gives the expanded uncertainty stated by the source.

Assay: molar heat capacity at constant pressure; xn = mol fraction of the nth substance listed
Details: 100 kPa, Liquid, Small sample (50 mg) DSC

For `CCC(O)CO` (centres undefined) [1,2-butanediol] + CO, the “molar heat capacity at constant pressure” value (293.15 K, x1 = 0.0476) was 87.09 ± 3.7 J/K/mol, the “molar heat capacity at constant pressure” value (293.15 K, x1 = 0.2098) was 110.52 ± 4.7 J/K/mol and the “molar heat capacity at constant pressure” value (293.15 K, x1 = 0.2964) was 123.04 ± 5.2 J/K/mol. For the same compound, the “molar heat capacity at constant pressure” value (293.15 K, x1 = 0.3913) was 137.52 ± 5.9 J/K/mol, the “molar heat capacity at constant pressure” value (293.15 K, x1 = 0.4706) was 148.79 ± 6.3 J/K/mol and the “molar heat capacity at constant pressure” value (293.15 K, x1 = 0.6016) was 168.53 ± 7.2 J/K/mol. For the same compound, the “molar heat capacity at constant pressure” value (293.15 K, x1 = 0.6991) was 182.48 ± 7.8 J/K/mol, the “molar heat capacity at constant pressure” value (293.15 K, x1 = 0.8042) was 198.84 ± 8.4 J/K/mol and the “molar heat capacity at constant pressure” value (293.15 K, x1 = 0.8917) was 211.25 ± 9 J/K/mol. The “molar heat capacity at constant pressure” value (293.15 K, x1 = 0.9224) was 216.09 ± 9.2 J/K/mol, the “molar heat capacity at constant pressure” value (293.15 K, x1 = 0.9627) was 222 ± 9.4 J/K/mol and the “molar heat capacity at constant pressure” value (293.15 K, x1 = 1) was 228.1 ± 9.6 J/K/mol. For the same compound, the “molar heat capacity at constant pressure” value (298.15 K, x1 = 0.0476) was 88.16 ± 3.7 J/K/mol, the “molar heat capacity at constant pressure” value (298.15 K, x1 = 0.2098) was 111.89 ± 4.7 J/K/mol and the “molar heat capacity at constant pressure” value (298.15 K, x1 = 0.2964) was 124.67 ± 5.3 J/K/mol. For the same compound, the “molar heat capacity at constant pressure” value (298.15 K, x1 = 0.3913) was 139.33 ± 5.9 J/K/mol, the “molar heat capacity at constant pressure” value (298.15 K, x1 = 0.4706) was 150.69 ± 6.4 J/K/mol and the “molar heat capacity at constant pressure” value (298.15 K, x1 = 0.6016) was 170.74 ± 7.2 J/K/mol. For the same compound, the “molar heat capacity at constant pressure” value (298.15 K, x1 = 0.6991) was 184.81 ± 7.8 J/K/mol, the “molar heat capacity at constant pressure” value (298.15 K, x1 = 0.8042) was 201.2 ± 8.5 J/K/mol and the “molar heat capacity at constant pressure” value (298.15 K, x1 = 0.8917) was 213.85 ± 9.1 J/K/mol. The “molar heat capacity at constant pressure” value (298.15 K, x1 = 0.9224) was 218.66 ± 9.2 J/K/mol, the “molar heat capacity at constant pressure” value (298.15 K, x1 = 0.9627) was 224.64 ± 9.5 J/K/mol and the “molar heat capacity at constant pressure” value (298.15 K, x1 = 1) was 230.8 ± 9.8 J/K/mol. The “molar heat capacity at constant pressure” value (303.15 K, x1 = 0.0476) was 89.28 ± 3.8 J/K/mol, the “molar heat capacity at constant pressure” value (303.15 K, x1 = 0.2098) was 113.35 ± 4.8 J/K/mol and the “molar heat capacity at constant pressure” value (303.15 K, x1 = 0.2964) was 126.29 ± 5.4 J/K/mol. For the same compound, the “molar heat capacity at constant pressure” value (303.15 K, x1 = 0.3913) was 141.14 ± 6 J/K/mol, the “molar heat capacity at constant pressure” value (303.15 K, x1 = 0.4706) was 152.65 ± 6.5 J/K/mol and the “molar heat capacity at constant pressure” value (303.15 K, x1 = 0.6016) was 172.88 ± 7.4 J/K/mol. For the same compound, the “molar heat capacity at constant pressure” value (303.15 K, x1 = 0.6991) was 187.13 ± 7.9 J/K/mol, the “molar heat capacity at constant pressure” value (303.15 K, x1 = 0.8042) was 203.65 ± 8.7 J/K/mol and the “molar heat capacity at constant pressure” value (303.15 K, x1 = 0.8917) was 216.37 ± 9.2 J/K/mol. The “molar heat capacity at constant pressure” value (303.15 K, x1 = 0.9224) was 221.31 ± 9.4 J/K/mol, the “molar heat capacity at constant pressure” value (303.15 K, x1 = 0.9627) was 227.27 ± 9.7 J/K/mol and the “molar heat capacity at constant pressure” value (303.15 K, x1 = 1) was 233.5 ± 9.9 J/K/mol. For the same compound, the “molar heat capacity at constant pressure” value (308.15 K, x1 = 0.0476) was 90.46 ± 3.8 J/K/mol, the “molar heat capacity at constant pressure” value (308.15 K, x1 = 0.2098) was 114.81 ± 4.9 J/K/mol and the “molar heat capacity at constant pressure” value (308.15 K, x1 = 0.2964) was 127.97 ± 5.4 J/K/mol. The “molar heat capacity at constant pressure” value (308.15 K, x1 = 0.3913) was 143 ± 6.1 J/K/mol, the “molar heat capacity at constant pressure” value (308.15 K, x1 = 0.4706) was 154.55 ± 6.5 J/K/mol and the “molar heat capacity at constant pressure” value (308.15 K, x1 = 0.6016) was 175.02 ± 7.4 J/K/mol. For the same compound, the “molar heat capacity at constant pressure” value (308.15 K, x1 = 0.6991) was 189.46 ± 8.1 J/K/mol, the “molar heat capacity at constant pressure” value (308.15 K, x1 = 0.8042) was 206.01 ± 8.7 J/K/mol and the “molar heat capacity at constant pressure” value (308.15 K, x1 = 0.8917) was 218.97 ± 9.3 J/K/mol. The “molar heat capacity at constant pressure” value (308.15 K, x1 = 0.9224) was 223.88 ± 9.5 J/K/mol, the “molar heat capacity at constant pressure” value (308.15 K, x1 = 0.9627) was 229.91 ± 9.8 J/K/mol and the “molar heat capacity at constant pressure” value (308.15 K, x1 = 1) was 236.21 ± 10 J/K/mol. For the same compound, the “molar heat capacity at constant pressure” value (313.15 K, x1 = 0.0476) was 91.68 ± 3.9 J/K/mol, the “molar heat capacity at constant pressure” value (313.15 K, x1 = 0.2098) was 116.36 ± 5 J/K/mol and the “molar heat capacity at constant pressure” value (313.15 K, x1 = 0.2964) was 129.69 ± 5.5 J/K/mol. For the same compound, the “molar heat capacity at constant pressure” value (313.15 K, x1 = 0.3913) was 144.86 ± 6.1 J/K/mol, the “molar heat capacity at constant pressure” value (313.15 K, x1 = 0.4706) was 156.51 ± 6.6 J/K/mol and the “molar heat capacity at constant pressure” value (313.15 K, x1 = 0.6016) was 177.24 ± 7.5 J/K/mol. The “molar heat capacity at constant pressure” value (313.15 K, x1 = 0.6991) was 191.71 ± 8.1 J/K/mol, the “molar heat capacity at constant pressure” value (313.15 K, x1 = 0.8042) was 208.45 ± 8.8 J/K/mol and the “molar heat capacity at constant pressure” value (313.15 K, x1 = 0.8917) was 221.48 ± 9.4 J/K/mol. The “molar heat capacity at constant pressure” value (313.15 K, x1 = 0.9224) was 226.45 ± 9.6 J/K/mol, the “molar heat capacity at constant pressure” value (313.15 K, x1 = 0.9627) was 232.46 ± 9.9 J/K/mol and the “molar heat capacity at constant pressure” value (313.15 K, x1 = 1) was 238.91 ± 10 J/K/mol. For the same compound, the “molar heat capacity at constant pressure” value (318.15 K, x1 = 0.0476) was 92.97 ± 3.9 J/K/mol, the “molar heat capacity at constant pressure” value (318.15 K, x1 = 0.2098) was 117.95 ± 5 J/K/mol and the “molar heat capacity at constant pressure” value (318.15 K, x1 = 0.2964) was 131.42 ± 5.6 J/K/mol. For the same compound, the “molar heat capacity at constant pressure” value (318.15 K, x1 = 0.3913) was 146.72 ± 6.2 J/K/mol, the “molar heat capacity at constant pressure” value (318.15 K, x1 = 0.4706) was 158.53 ± 6.7 J/K/mol and the “molar heat capacity at constant pressure” value (318.15 K, x1 = 0.6016) was 179.38 ± 7.6 J/K/mol. For the same compound, the “molar heat capacity at constant pressure” value (318.15 K, x1 = 0.6991) was 194.03 ± 8.2 J/K/mol, the “molar heat capacity at constant pressure” value (318.15 K, x1 = 0.8042) was 210.81 ± 9 J/K/mol and the “molar heat capacity at constant pressure” value (318.15 K, x1 = 0.8917) was 224 ± 9.5 J/K/mol. The “molar heat capacity at constant pressure” value (318.15 K, x1 = 0.9224) was 229.02 ± 9.7 J/K/mol, the “molar heat capacity at constant pressure” value (318.15 K, x1 = 0.9627) was 235.01 ± 9.9 J/K/mol and the “molar heat capacity at constant pressure” value (318.15 K, x1 = 1) was 241.52 ± 10 J/K/mol. The “molar heat capacity at constant pressure” value (323.15 K, x1 = 0.0476) was 94.33 ± 4 J/K/mol, the “molar heat capacity at constant pressure” value (323.15 K, x1 = 0.2098) was 119.55 ± 5.1 J/K/mol and the “molar heat capacity at constant pressure” value (323.15 K, x1 = 0.2964) was 133.19 ± 5.7 J/K/mol. The “molar heat capacity at constant pressure” value (323.15 K, x1 = 0.3913) was 148.64 ± 6.3 J/K/mol, the “molar heat capacity at constant pressure” value (323.15 K, x1 = 0.4706) was 160.49 ± 6.8 J/K/mol and the “molar heat capacity at constant pressure” value (323.15 K, x1 = 0.6016) was 181.52 ± 7.7 J/K/mol. For the same compound, the “molar heat capacity at constant pressure” value (323.15 K, x1 = 0.6991) was 196.36 ± 8.4 J/K/mol, the “molar heat capacity at constant pressure” value (323.15 K, x1 = 0.8042) was 213.25 ± 9.1 J/K/mol and the “molar heat capacity at constant pressure” value (323.15 K, x1 = 0.8917) was 226.43 ± 9.6 J/K/mol. For the same compound, the “molar heat capacity at constant pressure” value (323.15 K, x1 = 0.9224) was 231.59 ± 9.8 J/K/mol, the “molar heat capacity at constant pressure” value (323.15 K, x1 = 0.9627) was 237.65 ± 10 J/K/mol and the “molar heat capacity at constant pressure” value (323.15 K, x1 = 1) was 244.23 ± 10 J/K/mol.
